Measured values published in patent publication US20240376086A1, “SOLID FORM OF RHO-ASSOCIATED PROTEIN KINASE INHIBITOR OR SOLVATE THEREOF, PREPARATION METHOD AND USE THEREOF” (BEIJING TIDE PHARMACEUTICAL CO., LTD., priority 2021, published 2024).

What was measured:
Format in all cases: physicochemical
[1] = Solid hygroscopicity test; details: 25° C.±1° C., 80%±2% relative humidity, 24 hours
Description: Experimental Example 3: Solid Hygroscopicity Test
100 mg of Crystalline Form II of Compound A anhydrate and 100 mg of Crystalline Form I of Compound A monohydrate were precisely weighed. The two samples were placed at 25° C.±1° C. and 80%±2% relative humidity for 24 hours. The weight of the samples was then measured and the percentage weight increase was calculated.

[2] = Solid heat stability test (heating in DSC, then XRPD)
Description: Experimental Example 2: Solid Heat Stability Test
In a differential scanning calorimeter, samples of Crystalline Form I of Compound A monohydrate were heated at a rate of 10° C./min to 150° C. and 210° C., respectively, and then analyzed by X-ray powder diffraction.

[3] = Solid stability test (XRPD after storage)
Description: Experimental Example 1: Solid Stability Test
Two samples of Crystalline Form II of Compound A anhydrate were placed in environments of 40° C./75% RH and 60° C./90% RH for 7 days.

| weight increase percentage (hygroscopicity) [1] [%] | crystalline form by XRPD after heat treatment ([2]; heated at 10° C./min to 150° C.) | change in the crystalline form by XRPD analysis ([3]; 40° C./75% RH for 7 days) | change in the crystalline form by XRPD analysis ([3]; 60° C./90% RH for 7 days) | Structure (SMILES) | crystalline form by XRPD after heat treatment ([2]; heated at 10° C./min to 210° C.) |
| --- | --- | --- | --- | --- | --- |
| 3.62 | remained unchanged |  |  | Cn1c(C(=O)C2CC(F)(F)C2)cc2ccc(-c3nccc(Nc4ccc(-c5cn[nH]c5)cc4)n3)cc21 [Crystalline Form I of Compound A monohydrate] | converted to crystalline form II of Compound A anhydrous |
| 0.69 |  | no change in the crystalline form | no change in the crystalline form | Cn1c(C(=O)C2CC(F)(F)C2)cc2ccc(-c3nccc(Nc4ccc(-c5cn[nH]c5)cc4)n3)cc21 [Crystalline Form II of Compound A anhydrate] |  |
